Data set [1] concerns the target T1, kinase domain protein of RC kinase (Homo sapiens, UniProt Q56UN5).
T1 sequence (Q56UN5 1061-1324 limits assumed): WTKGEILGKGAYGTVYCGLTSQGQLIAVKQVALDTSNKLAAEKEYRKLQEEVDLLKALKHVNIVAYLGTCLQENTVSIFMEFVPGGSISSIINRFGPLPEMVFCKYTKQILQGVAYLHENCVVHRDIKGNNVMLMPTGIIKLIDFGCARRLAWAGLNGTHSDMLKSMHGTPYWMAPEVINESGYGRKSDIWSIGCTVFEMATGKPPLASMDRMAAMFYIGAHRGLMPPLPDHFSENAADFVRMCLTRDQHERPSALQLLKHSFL
Nature of the data set: Enzymatic assay for kinase inhibitory activity (Crebtide substrate, LANCE read-out). The class given is biochemical. The note with it: compound at 1 μM. A digest of the protocol:
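Compound tested at 1 μM final in HEPES/MgCl2/DTT buffer with 50 nM Crebtide and kinase domain at 1 μM ATP; full-length kinase at 3 μM ATP after 45 min preincubation. Reaction 45 min at room temperature, stopped with EDTA, read by LANCE TR-FRET (665/615 nm). Activity binned as % inhibition at 1 μM.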
(In general: TR-FRET usually uses a lanthanide donor and a delayed reading to cut background.)

In general, melting point refers to the temperature, or range, at which the solid turns liquid. The inhibition is the relative decrease from the control value, in per cent.

Consider `N#Cc1c(Nc2cccc(Cl)c2)n[nH]c1/N=C/c1cnc(N)s1` [Compound A103], for which the melting point was 221 to 225 °C. In addition, in data set [1] (1 µM), the “Activity (inhibition of the RC kinase activity)” value is recorded as “D (no greater than 5% inhibition of the RC kinase activity at 1 μM)”.

For the molecule `N#Cc1c(Nc2cccc(Cl)c2)n[nH]c1/N=C/c1cc[nH]c1` [Compound A106], the melting point was 240 to 248 °C. Besides, in data set [1], the inhibition at 1 µM is at most 5%.

As to `N#Cc1c(Nc2cccnc2)n[nH]c1/N=C/c1ccc(O)cc1` [Compound A110], the melting point lay in the range of 311 to 314 °C. In addition, in data set [1], the inhibition at 1 µM was in the range of 20 to 50%.

`N#Cc1c(Nc2cccc(Cl)c2)n[nH]c1/N=C/c1ccc(Oc2ncccn2)cc1` [Compound A111]: the melting point was in the range of 224 to 230 °C. The inhibition at 1 µM in data set [1] is 20 to 50%.

Molecule `N#Cc1c(Nc2cccc(Cl)c2)n[nH]c1/N=C/c1ccc(Oc2ccc(C(F)(F)F)cn2)cc1` [Compound A112] showed a melting point of 268 to 270 °C. Besides, the “Activity (inhibition of the RC kinase activity)” value in data set [1] is recorded as “C (no greater than 20% but at least 5% inhibition of the RC kinase activity at 1 μM)”.

The molecule `COc1cccc(O)c1/C=N/c1[nH]nc(Nc2ccccc2Cl)c1C(N)=O` [Compound B1] showed a melting point of 238 to 246 °C. For the same molecule, the inhibition at 1 µM in data set [1] was in the range of 5 to 20%.

The molecule `NC(=O)c1c(Nc2cccc(Cl)c2)n[nH]c1N=Cc1ccc(O)c([N+](=O)[O-])c1` [Compound B2, 3-((3-chlorophenyl)amino)-5-((4-hydroxy-3-nitrobenzylidene)amino)-1H-pyrazole-4-carboxamide] showed a melting point of 296 to 298 °C. Also, the inhibition at 1 µM in data set [1] is at least 50%.

Take `COc1ccc(C=Nc2[nH]nc(Nc3cccc(Cl)c3)c2C(N)=O)cc1` [Compound B3, 3-((3-chlorophenyl)amino)-5-((4-methoxybenzylidene)amino)-1H-pyrazole-4-carboxamide]: the melting point lay in the range of 295 to 297 °C. In data set [1], the inhibition at 1 µM lay in the range of 5 to 20%.

For the molecule `NC(=O)c1c(Nc2cccc(Cl)c2)n[nH]c1/N=C/c1ccc(Cl)cc1` [Compound B4, 5-((4-chlorobenzylidene)amino)-3-((3-chlorophenyl)amino)-1H-pyrazole-4-carboxamide], the melting point fell in the range of 303 to 305 °C. For the same molecule, the inhibition at 1 µM in data set [1] fell in the range of 5 to 20%.

`NC(=O)c1c(Nc2cccc(Cl)c2)n[nH]c1/N=C/c1ccc(O)cc1` [Compound B5] returned a melting point of 261 to 263 °C. For the same molecule, the inhibition at 1 µM in data set [1] is at least 50%.

`COc1cc(/C=N/c2[nH]nc(Nc3cccc(Cl)c3)c2C(N)=O)ccc1O` [Compound B7] gave a melting point of 268 to 270 °C. The inhibition at 1 µM in data set [1] is at least 50%.

`COc1cccc(/C=N/c2[nH]nc(Nc3cccc(Cl)c3)c2C(N)=O)c1` [Compound B8] registered a melting point of 283 to 285 °C. The inhibition at 1 µM in data set [1] was 20 to 50%.

As to `NC(=O)c1c(Nc2ccccc2)n[nH]c1/N=C/c1ccc(O)c([N+](=O)[O-])c1` [Compound B9], the melting point lay within 275 to 277 °C. For the same molecule, the inhibition at 1 µM in data set [1] was at least 50%.

For `NC(=O)c1c(Nc2ccccc2)n[nH]c1/N=C/c1ccc(Cl)cc1` [Compound B12], the melting point was in the range of 291 to 293 °C. The inhibition at 1 µM in data set [1] is 5 to 20%.

`COc1ccc(/C=N/c2[nH]nc(Nc3ccccc3)c2C(N)=O)cc1` [Compound B13] yielded a melting point of 257 to 260 °C. In data set [1], the inhibition at 1 µM was in the range of 20 to 50%.

Consider `NC(=O)c1c(Nc2cccc(Cl)c2)n[nH]c1/N=C/c1cccc2ccccc12` [Compound B15], for which the melting point was 280 to 283 °C. Moreover, the inhibition at 1 µM in data set [1] lay within 5 to 20%.

`COc1ccccc1/C=N/c1[nH]nc(Nc2cccc(Cl)c2)c1C(N)=O` [Compound B18] came in with a melting point of 270 to 273 °C. Further, the inhibition at 1 µM in data set [1] was 20 to 50%.

For the molecule `NC(=O)c1c(Nc2cccc(Cl)c2)n[nH]c1/N=C/c1c[nH]cn1` [Compound B19], the melting point is 265 to 267 °C. The inhibition at 1 µM in data set [1] was in the range of 20 to 50%.

For `NC(=O)c1c(Nc2ccc(Cl)cc2)n[nH]c1/N=C/c1ccc[nH]1` [Compound B20], the melting point lay in the range of 273 to 277 °C. Moreover, in data set [1], the inhibition at 1 µM lay in the range of 20 to 50%.

The molecule `NC(=O)c1c(Nc2ccc(Cl)cc2)n[nH]c1/N=C/c1ccccc1` [Compound B21] had a melting point of 303 to 306 °C. Further, the inhibition at 1 µM in data set [1] was 5 to 20%.

For the molecule `NC(=O)c1c(Nc2ccc(Cl)cc2)n[nH]c1/N=C/c1ccc(O)c([N+](=O)[O-])c1` [Compound B22], the melting point is 295 to 297 °C. The inhibition at 1 µM in data set [1] lay within 20 to 50%.

Regarding `COc1ccc(/C=N/c2[nH]nc(Nc3ccc(Cl)cc3)c2C(N)=O)cc1` [Compound B23], the melting point was in the range of 313 to 315 °C. The inhibition at 1 µM in data set [1] is at most 5%.

`NC(=O)c1c(Nc2ccc(Cl)cc2)n[nH]c1/N=C/c1ccc(Cl)cc1` [Compound B24] returned a melting point of 307 to 309 °C. The inhibition at 1 µM in data set [1] is at most 5%.

For the molecule `NC(=O)c1c(Nc2ccc(Cl)cc2)n[nH]c1/N=C/c1cccc2ccccc12` [Compound B25], the melting point is 290 to 296 °C. The inhibition at 1 µM in data set [1] was at most 5%.

Molecule `NC(=O)c1c(Nc2ccc(Cl)cc2)n[nH]c1/N=C/c1ccc(O)cc1` [Compound B26] came in with a melting point of 288 to 289 °C. Besides, the inhibition at 1 µM in data set [1] is at least 50%.

Molecule `NC(=O)c1c(Nc2ccc(Cl)cc2)n[nH]c1/N=C/c1ccc([N+](=O)[O-])cc1` [Compound B27] gave a melting point of 291 to 293 °C. The inhibition at 1 µM in data set [1] lay in the range of 5 to 20%.

As for `NC(=O)c1c(Nc2cccc(Cl)c2)n[nH]c1/N=C/c1ccc(O)cc1O` [Compound B30], the melting point lay within 220 to 225 °C. Moreover, the inhibition at 1 µM in data set [1] was at least 50%.

`COc1cccc(/C=N/c2[nH]nc(Nc3ccc(Cl)cc3)c2C(N)=O)c1` [Compound B33] displayed a melting point of 279 to 283 °C. The inhibition at 1 µM in data set [1] was at most 5%.

Consider `COc1ccccc1/C=N/c1[nH]nc(Nc2ccc(Cl)cc2)c1C(N)=O` [Compound B34], for which the melting point was 270 to 273 °C. Besides, in data set [1], the inhibition at 1 µM is at most 5%.

The molecule `NC(=O)c1c(Nc2ccc(Cl)cc2)n[nH]c1/N=C/c1ccc(O)cc1O` [Compound B36] showed a melting point of 243 to 246 °C. For the same molecule, in data set [1], the inhibition at 1 µM is at least 50%.

As to `NC(=O)c1c(Nc2cccc(Cl)c2)n[nH]c1/N=C/c1cc(Br)ccc1O` [Compound B49, 5-((5-bromo-2-hydroxybenzylidene)amino)-3-((3-chlorophenyl)amino)-1H-pyrazole-4-carboxamide], the melting point was 281 to 283 °C. Also, the inhibition at 1 µM in data set [1] lay in the range of 5 to 20%.

On to `NC(=O)c1c(Nc2cccc(Cl)c2)n[nH]c1/N=C/c1cc(Cl)ccc1O` [Compound B50], for which the melting point was 283 to 287 °C. In data set [1], the inhibition at 1 µM lay in the range of 5 to 20%.

`COc1cccc(/C=N/c2[nH]nc(Nc3cccc(Cl)c3)c2C(N)=O)c1O` [Compound B53] showed a melting point of 271 to 274 °C. Further, in data set [1], the inhibition at 1 µM lay in the range of 5 to 20%.

In turn, `NC(=O)c1c(Nc2cccc(Cl)c2)n[nH]c1/N=C/c1ccccc1O` [Compound B54] gave a melting point of 284 to 286 °C. Besides, in data set [1], the inhibition at 1 µM is 5 to 20%.

On to `NC(=O)c1c(Nc2ccccc2Cl)n[nH]c1/N=C/c1ccc(O)c([N+](=O)[O-])c1` [Compound B113], for which the melting point is 301 to 304 °C. The inhibition at 1 µM in data set [1] was 5 to 20%.

As to `NC(=O)c1c(Nc2ccccc2Cl)n[nH]c1/N=C/c1ccc([N+](=O)[O-])c(O)c1` [Compound B114], the melting point is 294 to 296 °C. For the same molecule, the inhibition at 1 µM in data set [1] lay in the range of 20 to 50%.

Regarding `NC(=O)c1c(Nc2ccccc2Cl)n[nH]c1/N=C/c1ccc(O)cc1` [Compound B117], the melting point lay in the range of 254 to 258 °C. The inhibition at 1 µM in data set [1] was at least 50%.

`COc1ccc(/C=N/c2[nH]nc(Nc3ccccc3Cl)c2C(N)=O)cc1[N+](=O)[O-]` [Compound B118]: the melting point is 304 to 306 °C. Moreover, in data set [1], the inhibition at 1 µM lay within 5 to 20%.

Molecule `COc1ccc(/C=N/c2[nH]nc(Nc3ccccc3Cl)c2C(N)=O)c(O)c1` [Compound B119] yielded a melting point of 267 to 270 °C. Moreover, the inhibition at 1 µM in data set [1] fell in the range of 5 to 20%.

`COc1ccc(/C=N/c2[nH]nc(Nc3ccccc3Cl)c2C(N)=O)cc1` [Compound B120] showed a melting point of 288 to 292 °C. For the same molecule, the inhibition at 1 µM in data set [1] was at least 50%.

Molecule `NC(=O)c1c(Nc2cccnc2)n[nH]c1/N=C/c1ccc(O)cc1` [Compound B121, 5-((4-hydroxybenzylidene)amino)-3-(pyridin-3-ylamino)-1H-pyrazole-4-carboxamide] yielded a melting point of 306 to 309 °C. The inhibition at 1 µM in data set [1] is at least 50%.

Take `COc1ccc(/C=N/c2[nH]nc(Nc3cccc(Cl)c3)c2C(N)=O)cc1` [Compound B122]: the melting point lay in the range of 295 to 298 °C. Moreover, in data set [1], the inhibition at 1 µM was in the range of 20 to 50%.
